What was measured:
Assay type in all cases: functional, cell-based
[1] = test system: BaF3; test: Antiproliferative activity against mouse BaF3 cells harboring EGFR L858R/T790M/C797S triple mutant assessed as inhibition of cell growth incubated for 72 hrs by CellTiter-Glo luminescent assay; conditions: BaF3, 72 h
[2] = test system: NCI-H1975; test: Antiproliferative activity against human NCI-H1975 cells harboring EGFR L858R/T790M double mutant assessed as inhibition of cell growth incubated for 72 hrs by MTT assay; conditions: NCI-H1975, 72 h
[3] = test system: A549; test: Antiproliferative activity against human A549 cells assessed as inhibition of cell growth incubated for 72 hrs by MTT assay; conditions: A549, 72 h
[4] = test system: BaF3; test: Antiproliferative activity against mouse BaF3 cells harboring EGFR Del19/T790M/C797S triple mutant assessed as inhibition of cell growth incubated for 72 hrs by CellTiter-Glo luminescent assay; conditions: BaF3, 72 h
[5] = test system: NCI-H1975; test: Antiproliferative activity against human NCI-H1975 cells harboring EGFR L858R/T790M/C797S triple mutant assessed as inhibition of cell growth incubated for 72 hrs by CellTiter-Glo luminescent assay; conditions: NCI-H1975, 72 h
[6] = test system: NCI-H1975; test: Antiproliferative activity against human NCI-H1975 cells harboring EGFR L858R/T790M/C797S triple mutant assessed as inhibition of cell growth incubated for 72 hrs in presence of osimertinib by CellTiter-Glo luminescent assay; conditions: NCI-H1975, 72 h
[7] = test system: BaF3; test: Antiproliferative activity against mouse BaF3 cells harboring wildtype EGFR assessed as inhibition of cell growth incubated for 72 hrs by CellTiter-Glo luminescent assay; conditions: BaF3, 72 h

Row | SMILES | IC50 [1] [nM] | IC50 [2] [nM] | IC50 [3] [nM] | IC50 [4] [nM] | IC50 [5] [nM] | IC50 [6] [nM] | IC50 [7] [nM]
1 | Nc1nccc(Nc2ccc(NC(=O)C(c3ccccc3)N3Cc4cc(-c5ccc(N6CCCCC6)cc5)ccc4C3=O)cc2)n1 (racemic) | 2080 | > 20000 | > 20000 | 2580 | – | – | –
2 | Nc1nccc(Nc2ccc(NC(=O)C(c3ccccc3)N3Cc4cc(-c5ccc(N6CCNCC6)cc5)ccc4C3=O)c(F)c2)n1 (centres undefined) | 1430 | 2440 | 1780 | 720 | 1430 | – | –
3 | Nc1cc(Nc2ccc(NC(=O)C(c3ccccc3)N3Cc4ccccc4C3=O)cc2)ncn1 (centres undefined) | > 10000 | > 20000 | > 20000 | > 10000 | > 10000 | – | –
4 | O=C(Nc1nccs1)[C@@H](c1cc(F)ccc1O)N1Cc2ccc(-c3ccc(N4CCNCC4)cc3)cc2C1=O | – | – | – | – | 3660 | 1250 | –
5 | Nc1nccc(Nc2ccc(NC(=O)C(c3ccccc3)N3Cc4cc(-c5ccc(N6CCNCC6)cc5)ccc4C3=O)cc2Cl)n1 (centres undefined) | 1440 | 3320 | 4200 | 860 | 1550 | – | –
6 | CN1CCN(c2ccc(-c3ccc4c(c3)CN([C@H](C(=O)Nc3ccc(Nc5ccnc(N)n5)cc3)c3ccccc3)C4=O)cc2)CC1 | 720 | 2820 | 7180 | 750 | 1640 | – | 450
7 | Cc1nccc(Nc2ccc(NC(=O)C(c3ccccc3)N3Cc4cc(-c5ccc(N6CCNCC6)cc5)ccc4C3=O)cc2)n1 (centres undefined) | 930 | 4750 | 3970 | – | 2690 | – | –
8 | O=C(Nc1ccc(Nc2ccncn2)cc1)C(c1ccccc1)N1Cc2cc(-c3ccc(N4CCNCC4)cc3)ccc2C1=O (centres undefined) | 2550 | 9950 | 5130 | 2450 | – | – | –
9 | Nc1nccc(Nc2ccc(NC(=O)C(c3ccccc3)N3Cc4cc(-c5ccc(N6CCOCC6)cc5)ccc4C3=O)cc2)n1 (racemic) | 1960 | > 20000 | > 20000 | 1960 | – | – | –
10 | Nc1nccc(Nc2ccc(NC(=O)C(c3ccccc3)N3Cc4cc(-c5ccc(N6CCNCC6)cc5)ccc4C3=O)cc2)n1 (centres undefined) | 970 | 3200 | 530 | 690 | 1490 | – | –
11 | Nc1nccc(Nc2ccc(NC(=O)C(c3ccccc3)N3Cc4cc(-c5ccc(N6CCNCC6)cc5)ccc4C3=O)c(Cl)c2)n1 (centres undefined) | 1240 | 4400 | 3960 | 860 | 2320 | – | –
